# Patent US7405036B2, “Process for reducing pathogens in a biological sample and removing a sample pellet from a sample tube” (priority 2001, dated 2008)
# Legend:
# [1] = test system: fresh semen of domestic bulls and gaur bulls; type: cell-based, Bos taurus, Bos gaur
# [2] = test system: bovine (Bos gaurus) sperm; test: Percoll density gradient with trypsin, viability of cryopreserved sperm
# Campylobacter fetus = type: cell-based
# [3] = test system: cultured cells and embryos; details: up to 1000 μg/ml; cited from earlier work
# Mycoplasma species = details: 200 μg/ml; cited from earlier work
compound,measurement,setting,value
trypsin,acrosomal integrity,[1],nor any significant damage
same,overall motility,[1],no significant reduction
same,viability (vital staining),[1],no reduction
same,effect on sperm of increasing trypsin concentration,[2],no detrimental effects
CCC[C@@H]1C[C@@H](C(=O)N[C@@H]([C@H]2O[C@H](SC)[C@H](O)[C@@H](O)[C@H]2O)[C@@H](C)O)N(C)C1 [lincomycin],sensitivity of C. fetus to antibiotic,Campylobacter fetus,sensitive
NC[C@H]1O[C@H](O[C@H]2[C@H](O)[C@@H](O[C@H]3O[C@H](CO)[C@@H](O)[C@H](N)[C@H]3O)[C@H](N)C[C@@H]2N)[C@H](O)[C@@H](O)[C@@H]1O [kanamycin],toxicity to cultured cells and embryos,[3],very little toxicity
CC[C@H]1OC(=O)C[C@@H](O)[C@H](C)[C@@H](O[C@@H]2O[C@H](C)[C@@H](O[C@H]3C[C@@](C)(O)[C@@H](O)[C@H](C)O3)[C@H](N(C)C)[C@H]2O)[C@@H](CC=O)C[C@@H](C)C(=O)/C=C/C(C)=C/[C@@H]1CO[C@@H]1O[C@H](C)[C@@H](O)[C@@H](OC)[C@H]1OC [tylosin],sensitivity of C. fetus to antibiotic,Campylobacter fetus,intermediate
same,elimination of Mycoplasma species from bovine embryos,Mycoplasma species,capable of eliminating
same,embryo viability,Mycoplasma species,without effecting embryo viability
CN[C@@H]1[C@H](O)[C@H](NC)[C@H]2O[C@@]3(O)C(=O)C[C@@H](C)O[C@H]3O[C@@H]2[C@H]1O [spectinomycin],sensitivity of C. fetus to antibiotic,Campylobacter fetus,intermediate
